Laboratory results: patent US7102009B2, “Substituted amine derivatives and methods of use” (Amgen Inc., priority 2001, dated 2006)

System: Human Umbilical Vein Endothelial cells (VEGF-stimulated HUVEC proliferation)
Assay: HUVEC Proliferation Assay (VEGF-stimulated)
Type: cell-based
Details: VEGF 50 ng/mL, 72 h incubation, CyQuant readout, read-out: inhibited VEGF-stimulated HUVEC proliferation at a level below (IC50)
Method: Human Umbilical Vein Endothelial cells are purchased from Clonetics, Inc., as cryopreserved cells harvested from a pool of donors. These cells, at passage 1, are thawed and expanded in EBM-2 complete medium, until passage 2 or 3. The cells are trypsinized, washed in DMEM+10% FBS+antibiotics, and spun at 1000 rpm for 10 min. Prior to centrifugation of the cells, a small amount is collected for a cell count. After centrifugation, the medium is discarded, and the cells are resuspended in the appropriate volume of DMEM+10% FBS+antibiotics to achieve a concentration of 3×10^5 cells/mL. Another cell count is performed to confirm the cell concentration. The cells are diluted to 3×10^4 cells/mL in DMEM+10% FBS+antibiotics, and 100 μL of cells are added to a 96-well plate. The cells are incubated at 37° C. for 22 h.
Prior to the completion of the incubation period, compound dilutions are prepared. Five-point, five-fold serial dilutions are prepared in DMSO, at concentrations 400-fold greater than the final concentrations desired. 2.5 μL of each compound dilution are diluted further in a total of 1 mL DMEM+10% FBS+antibiotics (400× dilution). Medium containing 0.25% DMSO is also prepared for the 0 μM compound sample. At the 22-hour timepoint, the medium is removed from the cells, and 100 μL of each compound dilution is added. The cells are incubated at 37° C. for 2-3 h.
During the compound pre-incubation period, the growth factors are diluted to the appropriate concentrations. Solutions of DMEM+10% FBS+antibiotics, containing either VEGF or bFGF at the following concentrations: 50, 10, 2, 0.4, 0.08, and 0 ng/mL are prepared. For the compound-treated cells, solutions of VEGF at 550 ng/mL or bFGF at 220 ng/mL for 50 ng/mL or 20 ng/mL final concentrations, respectively, are prepared since 10 μL of each will be added to the cells (110 μL final volume). At the appropriate time after adding the compounds, the growth factors are added. VEGF is added to one set of plates, while bFGF is added to another set of plates. For the growth factor control curves, the media on wells B4-G6 of plates 1 and 2 are replaced with media containing VEGF or bFGF at the varying concentrations (50-0 ng/mL). The cells are incubated at 37° C. for an additional 72 h.
At the completion of the 72 h incubation period, the medium is removed, and the cells are washed twice with PBS. After the second wash with PBS, the plates are tapped gently to remove excess PBS, and the cells are placed at −70° C. for at least 30 min. The cells are thawed and analyzed using the CyQuant fluorescent dye (Molecular Probes C-7026), following the manufacturer's recommendations. The plates are read on a Victor/Wallac 1420 workstation at 485 nm/530 nm (excitation/emission). Raw data are collected and analyzed using a 4-parameter fit equation in XLFit. IC50 values are then determined.

Question: How did the IC50 turn out when `O=C(Nc1ccc2c(C(F)(F)F)cc(=O)oc2c1)c1cccnc1Nc1ccc2cn[nH]c2c1` [Example 120, 2-(1H-Indazol-6-ylamino)-N-(2-oxo-4-trifluoromethyl-2H-chromen-7-yl)-nicotinamide] was run?
Answer: < 50 nM

Question: For `O=C(Nc1ccc2c(c1)CN(CCN1CCOCC1)CC2)c1cccnc1Nc1ccc2cn[nH]c2c1` [Example 118, 2-(1H-Indazol-6-ylamino)-N-[2-(2-morpholin-4-yl-ethyl)-1,2,3,4-tetrahydro-isoquinolin-7-yl]-nicotinamide], which IC50 is on record?
Answer: < 50 nM

Question: With `CN1CCC(N2CC(C)(C)c3ccc(NC(=O)c4cccnc4Nc4ccc5cn[nH]c5c4)cc32)CC1` [Example 48, N-[3,3-Dimethyl-1-(1-methyl(4-piperidyl))indolin-6-yl][2-(1H-indazol-6-ylamino)(3-pyridyl)]carboxamide] as the molecule, how does the IC50 read?
Answer: < 50 nM

Question: For `CC1(C)CNCc2cc(NC(=O)c3cccnc3Nc3ccc4cn[nH]c4c3)ccc21` [Example 126, N-(4,4-Dimethyl-1,2,3,4-tetrahydro-isoquinolin-7-yl)-2-(1H-indazol-6-ylamino)-nicotinamide], which IC50 is on record?
Answer: < 50 nM

Question: How did the IC50 turn out when `O=C(Nc1cc(OC[C@@H]2CCCN2)cc(C(F)(F)F)c1)c1cccnc1Nc1ccc2cn[nH]c2c1` [Example 97, 2-(1H-Indazol-6-ylamino)-N-[3-(2S-pyrrolidin-2-ylmethoxy)-5-trifluoromethyl-phenyl]-nicotinamide] was run?
Answer: < 50 nM

Question: For `O=C(Nc1ccc(Oc2ccccc2)cc1)c1cccnc1Nc1ccc2cn[nH]c2c1` [Example 43, 2-(1H-Indazol-6-ylamino)-N-(4-phenoxy-phenyl)-nicotinamide], which IC50 is on record?
Answer: < 50 nM

Question: How did the IC50 turn out when `CC(C)(C)c1ccc(NC(=O)c2cccnc2Nc2ccc3cn[nH]c3c2)cc1OC[C@@H]1CCCN1` [Example 96, N-[4-tert-Butyl-3-(pyrrolidin-2-ylmethoxy)-phenyl]-2-(1H-indazol-6-ylamino)-nicotinamide] was run?
Answer: < 50 nM

Question: How did the IC50 turn out when `CS(=O)(=O)Nc1cc(NC(=O)c2cccnc2Nc2ccc3cn[nH]c3c2)cc(C(F)(F)F)c1` [Example 586, 2-(1H-Indazol-6-ylamino)-N-(3-((methylsulfonyl)amino)-5-(trifluoromethyl)phenyl)-3-pyridinecarboxamide] was run?
Answer: < 50 nM

Question: `CN(C)CCOc1n[nH]c2cc(Nc3ncccc3C(=O)Nc3ccc(C(C)(C)C)cc3)ccc12` [Example 40, [2-({3-[2-(Dimethylamino)ethoxy](1H-indazol-6-yl)}amino)(3-pyridyl)]-N-[4-(tert-butyl)phenyl]carboxamide] was tested. Which IC50 did it give?
Answer: < 50 nM

Question: With `CC1(C)CC(=O)Nc2cc(NC(=O)c3cccnc3Nc3ccc4cn[nH]c4c3)ccc21` [Example 575, N-(4,4-Dimethyl-2-oxo-1,2,3,4-tetrahydro-quinolin-7-yl)-2-(1H-indazol-6-ylamino)-nicotinamide] as the molecule, how does the IC50 read?
Answer: < 50 nM

Question: With `COc1ccc(NC(=O)c2cccnc2Nc2ccc3cn[nH]c3c2)cc1OCCN(C)C` [Example 37, N-{3-[2-(Dimethylamino)ethoxy]-4-methoxyphenyl)[2-(1H-indazol-6-ylamino)(3-pyridyl)]carboxamide] as the molecule, how does the IC50 read?
Answer: < 50 nM

Question: `O=C(Nc1ccc(C(F)(F)C(F)(F)F)c(CN2CCNCC2)c1)c1cccnc1Nc1ccc2cn[nH]c2c1` [Example 111, 2-(1H-Indazol-6-ylamino)-N-(4-pentafluoroethyl-3-piperazin-1-ylmethyl-phenyl)-nicotinamide] was tested. Which IC50 did it give?
Answer: < 50 nM

Question: How did the IC50 turn out when `O=C(Nc1cccc(C(F)(F)F)c1)c1cccnc1Nc1ccc2cn[nH]c2c1` [Example 9, [2-(1H-Indazol-6-ylamino)(3-pyridyl)]-N-[3-(trifluoromethyl)phenyl]carboxamide] was run?
Answer: < 50 nM

Question: For `CCC(C)c1ccc(NC(=O)c2cccnc2Nc2ccc3cn[nH]c3c2)cc1` (centres unmarked) [Example 7, [2-(1H-Indazol-6-ylamino)(3-pyridyl)]-N-[4-(methylpropyl)phenyl]carboxamide], which IC50 is on record?
Answer: < 50 nM

Question: Which IC50 does the source give for `CC(C)c1cccc(NC(=O)c2cccnc2Nc2ccc3cn[nH]c3c2)c1` [Example 6, [2-(1H-Indazol-6-ylamino)(3-pyridyl)]-N-[3-(methylethyl)phenyl]carboxamide] here?
Answer: < 50 nM

Question: `O=C(Nc1ccc(C(O)(C(F)(F)F)C(F)(F)F)cc1)c1cccnc1Nc1ccc2cn[nH]c2c1` [Example 24] was tested. Which IC50 did it give?
Answer: < 50 nM

Question: `CN1CCC(Cc2cc(NC(=O)c3cccnc3Nc3ccc4cn[nH]c4c3)cc(C(F)(F)F)c2)CC1` [Example 72, 2-(1H-Indazol-6-ylamino)-N-[3-(1-methyl-piperidin-4-ylmethyl)-5-trifluoromethyl-phenyl]-nicotinamide] was tested. Which IC50 did it give?
Answer: < 50 nM

Question: `CN1CC=C(c2cc(NC(=O)c3cccnc3Nc3ccc4cn[nH]c4c3)ccc2C(C)(C)C)CC1` [Example 23] was tested. Which IC50 did it give?
Answer: < 50 nM

Question: How did the IC50 turn out when `CC(C)c1ccc(NC(=O)c2ccc(F)nc2Nc2ccc3cn[nH]c3c2)cc1` [Example 67, [6-Fluoro-2-(1H-indazol-6-ylamino)(3-pyridyl)]-N-[4-(methylethyl)phenyl]carboxamide] was run?
Answer: < 50 nM

Question: How did the IC50 turn out when `O=C(Nc1cc(CCCN2CCOCC2)cc(C(F)(F)F)c1)c1cccnc1Nc1ccc2cn[nH]c2c1` [Example 70, 2-(1H-Indazol-6-ylamino)-N-[3-(3-morpholin-4-yl-propyl)-5-trifluoromethyl-phenyl]-nicotinamide] was run?
Answer: < 50 nM

Question: How did the IC50 turn out when `CC(C)(C)c1ccc(NC(=O)c2cccnc2Nc2ccc3cn[nH]c3c2)cc1NC(=O)CN1CCCC1` [Example 587, N-(4-(1,1-Dimethylethyl)-3-((1-pyrrolidinylacetyl)amino)phenyl)-2-(1H-indazol-6-ylamino)-3-pyridinecarboxamide] was run?
Answer: < 50 nM

Question: How did the IC50 turn out when `O=C(Nc1ccc(Cl)cc1)c1cccnc1Nc1ccc2cn[nH]c2c1` [Example 3, N-(4-Chlorophenyl)[2-(1H-indazol-6-ylamino)(3-pyridyl)]carboxamide] was run?
Answer: < 50 nM

Question: How did the IC50 turn out when `CC(C)(C)c1ccc(NC(=O)c2cccnc2Nc2ccc3cn[nH]c3c2)cc1CCCN1CCOCC1` [Example 57, N-[4-(tert-Butyl)-3-(3-morpholin-4-ylpropyl)phenyl][2-(1H-indazol-6-ylamino)(3-pyridyl)]carboxamide] was run?
Answer: < 50 nM

Question: `CC(C)c1ccc(NC(=O)c2cccnc2Nc2ccc3cn[nH]c3c2)cc1` [Example 5, 2-(1H-Indazol-6-ylamino)-N-(4-isopropyl-phenyl)nicotinamide] was tested. Which IC50 did it give?
Answer: < 50 nM

Question: How did the IC50 turn out when `O=C(Nc1ccc(C(F)(F)C(F)(F)F)cc1)c1cccnc1Nc1cccc2c1CNC2=O` [Example 602, 2-(1-Oxo-2,3-dihydro-1H-isoindol-4-ylamino)-N-(4-pentafluoroethyl-phenyl)-nicotinamide] was run?
Answer: < 50 nM

Question: Which IC50 does the source give for `CC(C)(C)c1ccc(NC(=O)c2cccnc2Nc2cccc3c2CNC3=O)cc1` [Example 600, N-(4-tert-Butyl-phenyl)-2-(1-oxo-2,3-dihydro-1H-isoindol-4-ylamino)-nicotinamide] here?
Answer: < 50 nM

Question: `CC(=O)N1CCC[C@@H]1COc1cc(NC(=O)c2cccnc2Nc2ccc3cn[nH]c3c2)cc(C(F)(F)F)c1` [Example 580, N-(3-((((2R)-1-Acetyl-2-pyrrolidinyl)methyl)oxy)-5-(trifluoromethyl)phenyl)-2-(1H-indazol-6-ylamino)-3-pyridinecarboxamide] was tested. Which IC50 did it give?
Answer: < 50 nM

Question: `O=C(Nc1ccc(C(F)(F)C(F)(F)F)c(CN2CCOCC2)c1)c1cccnc1Nc1ccc2cn[nH]c2c1` [Example 110, 2-(1H-Indazol-6-ylamino)-N-(3-morpholin-4-ylmethyl-4-pentafluoroethyl-phenyl)-nicotinamide] was tested. Which IC50 did it give?
Answer: < 50 nM

Question: With `COc1ccc(C(C)(C)C)cc1NC(=O)c1cccnc1Nc1ccc2cn[nH]c2c1` [Example 25, N-[5-(tert-Butyl)-2-methoxyphenyl][2-(1H-indazol-6-ylamino)(3-pyridyl)]carboxamide] as the molecule, how does the IC50 read?
Answer: < 50 nM

Question: For `COc1ccc(NC(=O)c2cccnc2Nc2ccc3cn[nH]c3c2)cc1O` [Example 36, N-(3-Hydroxy-4-methoxyphenyl)[2-(1H-indazol-6-ylamino)(3-pyridyl)]carboxamide], which IC50 is on record?
Answer: < 50 nM

Question: `O=C1NCCc2ccc(NC(=O)c3cccnc3Nc3ccc4cn[nH]c4c3)cc21` [Example 27, 2-(1H-Indazol-6-ylamino)-N-(1-oxo-1,2,3,4-tetrahydro-isoguinolin-7-yl)-nicotinamide] was tested. Which IC50 did it give?
Answer: < 50 nM

Question: With `O=C(Nc1ccc(C(F)(F)C(F)(F)F)c(OC[C@H]2CCCN2)c1)c1cccnc1Nc1ccc2cn[nH]c2c1` [Example 84, 2-(1H-Indazol-6-ylamino)-N-[4-pentafluoroethyl-3-(2R-pyrrolidin-2-ylmethoxy)-phenyl]-nicotinamide] as the molecule, how does the IC50 read?
Answer: < 50 nM
